The record followed here is ChEMBL document CHEMBL4811230, “In Planta Discovery and Chemical Synthesis of Bracelet Cystine Knot Peptides from Rinorea bengalensis” (J Nat Prod, 2021).

The subject of one series is PC-3. Briefly: Cytotoxicity against human PC-3 cells assessed as decrease in cell viability measured after 24 hrs by MTT assay. It is filed as functional.
Another series has as its system MDA-MB-231. Briefly: Cytotoxicity against human MDA-MB-231 cells assessed as decrease in cell viability measured after 24 hrs by MTT assay. In kind it is functional.
Series [1] is described as follows: Cytotoxicity against HUVEC cells assessed as decrease in cell viability measured after 24 hrs by MTT assay. It is filed as cell-based. As to conditions: human.
The nature of series [2]: Hemolytic activity against human RBC incubated for 1 hr. In kind it is ADME, cell-based, Erythrocyte. As to conditions: red blood cells (erythrocytes), read-out: CC50.

Starred links: 1 amine or outer side, 2 acyl side, 3 side chain; linkers in the order of their positions; H or OH if unused. Positions of bridges follow the written chain, without caps; N, C: chain ends. Non-standard residues stand in square brackets, D forms with d. Residues, ends and D or L forms follow the SMILES beside them. X1 = CN[C@@H](C)[C@H](N[*:1])C(=O)[*:2]

With `CC[C@H](C)[C@@H]1NC(=O)[C@H](CCCNC(=N)N)NC(=O)CNC(=O)[C@H](CCCCN)NC(=O)[C@@H]2CSSC[C@@H]3NC(=O)[C@H](CO)NC(=O)[C@H](CCC(=O)O)NC(=O)CNC(=O)[C@@H]4CSSC[C@H](NC(=O)CNC(=O)[C@H]([C@@H](C)CC)NC(=O)[C@H](C(C)C)NC(=O)[C@H](CO)NC(=O)[C@H]([C@@H](C)O)NC(=O)[C@H](Cc5ccccc5)NC(=O)[C@H](CSSC[C@H](NC1=O)C(=O)N[C@@H](C(C)C)C(=O)N[C@@H](CCCNC(=N)N)C(=O)N[C@@H](Cc1ccccc1)C(=O)N[C@@H](CCC(N)=O)C(=O)N4)NC(=O)[C@H](Cc1ccc(O)cc1)NC(=O)[C@H]([C@@H](C)O)NC(=O)[C@H]([C@@H](C)O)NC(=O)[C@H]([C@@H](C)CC)NC(=O)[C@H](CCSC)NC(=O)CNC3=O)C(=O)N[C@@H](CO)C(=O)N2` (cyclo(CFTSVIGCSCKGRICVRFQCGESCGMITTY); disulfide 1-15, 8-20, 10-24) [listing 1 of 2 here], the CC50 in the series with PC-3 worked out at 1300 nM; with MDA-MB-231, 4100 nM.

Regarding `CC[C@H](C)[C@@H]1CC(=O)[C@H](C)NC(=O)[C@H](CCCNC(=N)N)NC(=O)[C@H](Cc2ccc(O)cc2)NC(=O)[C@@H]2CSSC[C@@H]3NC(=O)[C@@H]4CCCN4C(=O)[C@H]([C@@H](C)CC)NC(=O)[C@H](Cc4ccc(O)cc4)NC(=O)[C@H](C(C)C)NC(=O)[C@@H]4CSSC[C@H](NC(=O)[C@H](CO)NC(=O)[C@H](CSSC[C@H](NC(=O)[C@@H]5CCCN5C1=O)C(=O)NCC(=O)N[C@@H](CCC(=O)O)C(=O)N[C@@H](CO)C(=O)N4)NC(=O)CNC(=O)[C@H]([C@@H](C)CC)NC(=O)[C@H](C)NC(=O)[C@H](C)NC(=O)[C@H]([C@H](C)O)NC(=O)[C@H](CC(C)C)NC3=O)C(=O)N[C@@H](CCCCN)C(=O)N[C@@H](CC(N)=O)C(=O)N[C@@H](CCCCN)C(=O)N[C@@H](C(C)C)C(=O)N2`, the CC50 at 24 h in series [1] came to 200 nM. Further, the CC50 in the series on PC-3 was 300 nM; with MDA-MB-231, 600 nM.

In the case of `CC[C@H](C)[C@@H]1NC(=O)[C@H](CCCNC(=N)N)NC(=O)CNC(=O)[C@H](CCCCN)NC(=O)[C@@H]2CSSC[C@@H]3NC(=O)[C@H](CO)NC(=O)[C@H](CCC(=O)O)NC(=O)CNC(=O)[C@@H]4CSSC[C@H](NC(=O)CNC(=O)[C@H]([C@@H](C)CC)NC(=O)[C@H](C(C)C)NC(=O)[C@H](CO)NC(=O)[C@H]([C@@H](C)O)NC(=O)[C@H](Cc5ccccc5)NC(=O)[C@H](CSSC[C@H](NC1=O)C(=O)N[C@@H](C(C)C)C(=O)N[C@@H](CCCNC(=N)N)C(=O)N[C@@H](Cc1ccccc1)C(=O)N[C@@H](CCC(N)=O)C(=O)N4)NC(=O)[C@H](Cc1ccc(O)cc1)NC(=O)[C@H]([C@@H](C)O)NC(=O)[C@H]([C@@H](C)O)NC(=O)[C@H]([C@@H](C)CC)NC(=O)[C@H](CCSC)NC(=O)CNC3=O)C(=O)N[C@@H](CO)C(=O)N2` (cyclo(CFTSVIGCSCKGRICVRFQCGESCGMITTY); disulfide 1-15, 8-20, 10-24) [listing 2 of 2 here], the CC50 at 24 h in series [1] was 1200 nM. Also, in series [2], the HC50 at 1 h is > 33 µM.

Consider `CC(C)C[C@@H]1NC(=O)CNC(=O)[C@H](CC(N)=O)NC(=O)[C@H](CCCNC(=N)N)NC(=O)[C@H]([C@@H](C)O)NC(=O)[C@@H]2CSSC[C@@H]3NC(=O)[C@H]([C@@H](C)O)NC(=O)CNC(=O)CNC(=O)[C@H](C(C)C)NC(=O)[C@@H]4CSSC[C@H](NC(=O)[C@H]([C@@H](C)O)NC(=O)[C@H](CSSC[C@H](NC(=O)[C@H](C(C)C)NC(=O)[C@@H]5CCCN5C1=O)C(=O)NCC(=O)N[C@@H](CCC(=O)O)C(=O)N[C@@H]([C@@H](C)O)C(=O)N4)NC(=O)CNC(=O)[C@@H]1CCCN1C(=O)[C@H]([C@@H](C)O)NC(=O)[C@H](CC(N)=O)NC3=O)C(=O)N[C@@H](CO)C(=O)N[C@@H](Cc1c[nH]c3ccccc13)C(=O)N1CCC[C@H]1C(=O)N[C@@H](C(C)C)C(=O)N2`, for which the CC50 in the series with PC-3 is 3100 nM; in the series with MDA-MB-231, 5100 nM.

Regarding `CC[C@H](C)[C@@H]1NC(=O)[C@H](C)NC(=O)[C@H](CO)NC(=O)[C@H](CO)NC(=O)[C@H]([C@@H](C)CC)NC(=O)[C@@H]2CSSC[C@@H]3NC(=O)[C@H](C(C)C)NC(=O)[C@H](CCCCN)NC(=O)[C@H](CO)NC(=O)[C@H](CCCCN)NC(=O)[C@@H]4CSSC[C@H](NC(=O)[C@H](CO)NC(=O)[C@H](CCC(=O)O)NC(=O)CNC(=O)[C@H](CSSC[C@H](NC(=O)CNC1=O)C(=O)N[C@@H](CO)C(=O)N4)NC(=O)[C@@H]1CCCN1C(=O)[C@H]([C@@H](C)CC)NC(=O)CNC(=O)[C@H](CC(N)=O)NC(=O)[C@H](CCCNC(=N)N)NC(=O)[C@H](Cc1ccc(O)cc1)NC3=O)C(=O)N[C@@H](C(C)C)C(=O)N[C@@H](Cc1c[nH]c3ccccc13)C(=O)N[C@@H]([C@@H](C)CC)C(=O)N1CCC[C@H]1C(=O)N2` (cyclo(AIGCSCKSKVCYRNGIPCGESCVWIPCISS); disulfide 4-18, 6-22, 11-27), the CC50 at 24 h in series [1] turned out to be 500 nM. Further, the HC50 at 1 h in series [2] was found to be 18.5 µM. The CC50 in the series on PC-3 was 600 nM; in the series with MDA-MB-231, 1100 nM.

As for `CC[C@H](C)[C@@H]1NC(=O)[C@H](CC(C)C)NC(=O)[C@H](C)NC(=O)[C@H]([C@H](C)O)NC(=O)[C@H](C(C)C)NC(=O)[C@H]([C@H](C)O)NC(=O)[C@H](CS)NC(=O)[C@@H]2CCCN2C1=O`, the CC50 at 24 h in series [1] worked out at 900 nM. For the same compound, the HC50 at 1 h in series [2] was found to be 21.9 µM. Besides, the values for the cytotoxic concentration (CC50) in the series on PC-3 and in the series on MDA-MB-231 were 700 nM and 1500 nM, respectively.

Take `CC[C@H](C)[C@@H]1NC(=O)[C@@H]2CSSC[C@@H]3NC(=O)[C@H](C(C)C)NC(=O)[C@H](CCCCN)NC(=O)[C@H](CC(N)=O)NC(=O)[C@H](CCC(N)=O)NC(=O)[C@@H]4CSSC[C@H](NC(=O)[C@H](CO)NC(=O)[C@H](CCC(=O)O)NC(=O)CNC(=O)[C@H](CSSC[C@H](NC(=O)CNC(=O)[C@H]([C@H](C)NC)NC(=O)[C@H](C(C)C)NC(=O)[C@H](C)NC(=O)[C@H](CO)NC1=O)C(=O)N[C@@H](CCCCN)C(=O)N4)NC(=O)[C@@H]1CCCN1C(=O)[C@H]([C@@H](C)CC)NC(=O)[C@H](C)NC(=O)[C@H](CCCNC(=N)N)NC(=O)[C@H](Cc1ccc(O)cc1)NC3=O)C(=O)N[C@@H](C(C)C)C(=O)N[C@@H](Cc1ccc(O)cc1)C(=O)N[C@@H]([C@@H](C)CC)C(=O)N1CCC[C@H]1C(=O)N2` (cyclo(AIPCGESCVYIPCISAV[X1]GCKCQNKVCYR); disulfide 4-20, 8-22, 13-27) [listing 1 of 2 here]: the results for the 50% cytotoxic concentration (CC50) in the series with PC-3 and with MDA-MB-231 were 1200 nM and 2300 nM, respectively.

Turning to `CC[C@H](C)[C@@H]1NC(=O)[C@@H]2CSSC[C@@H]3NC(=O)[C@H](C(C)C)NC(=O)[C@H](CCCCN)NC(=O)[C@H](CC(N)=O)NC(=O)[C@H](CCCCN)NC(=O)[C@@H]4CSSC[C@H](NC(=O)[C@H](CO)NC(=O)[C@H](CCC(=O)O)NC(=O)CNC(=O)[C@H](CSSC[C@H](NC(=O)CNC(=O)[C@H]([C@@H](C)CC)NC(=O)[C@H](C(C)C)NC(=O)[C@H](CO)NC(=O)[C@H](CO)NC1=O)C(=O)N[C@@H](CO)C(=O)N4)NC(=O)[C@@H]1CCCN1C(=O)[C@H]([C@@H](C)CC)NC(=O)[C@H](C)NC(=O)[C@H](CCCNC(=N)N)NC(=O)[C@H](Cc1ccc(O)cc1)NC3=O)C(=O)N[C@@H](C(C)C)C(=O)N[C@@H](Cc1ccc(O)cc1)C(=O)N[C@@H]([C@@H](C)CC)C(=O)N1CCC[C@H]1C(=O)N2` (cyclo(AIPCGESCVYIPCISSVIGCSCKNKVCYR); disulfide 4-20, 8-22, 13-27), in series [2], the HC50 at 1 h was 8.8 µM. The half-maximal cytotoxic concentration (CC50) was 500 nM with PC-3 and 800 nM with MDA-MB-231.

`CC[C@H](C)[C@@H]1NC(=O)[C@@H]2CSSC[C@@H]3NC(=O)[C@H](C(C)C)NC(=O)[C@H](CCCCN)NC(=O)[C@H](CC(=O)NN)NC(=O)[C@H](CCCCN)NC(=O)[C@@H]4CSSC[C@H](NC(=O)[C@H](CO)NC(=O)[C@H](CCC(=O)O)NC(=O)CNC(=O)[C@H](CSSC[C@H](NC(=O)CNC(=O)[C@H]([C@@H](C)CC)NC(=O)[C@H](C(C)C)NC(=O)[C@H](CCC(N)=O)NC(=O)[C@H](CO)NC1=O)C(=O)N[C@@H](CCCCN)C(=O)N4)NC(=O)[C@@H]1CCCN1C(=O)[C@H]([C@@H](C)CC)NC(=O)[C@H](C)NC(=O)[C@H](CCCNC(=N)N)NC(=O)[C@H](Cc1ccc(O)cc1)NC3=O)C(=O)N[C@@H](C(C)C)C(=O)N[C@@H](Cc1ccc(O)cc1)C(=O)N[C@@H]([C@@H](C)CC)C(=O)N1CCC[C@H]1C(=O)N2`: the CC50 at 24 h in series [1] is 1000 nM. For the same compound, the CC50 in the series with PC-3 came to 1500 nM; in the series with MDA-MB-231, 2200 nM.

Consider `CC[C@H](C)[C@@H]1NC(=O)[C@@H]2CSSC[C@@H]3NC(=O)[C@H](C(C)C)NC(=O)[C@H](CCCCN)NC(=O)[C@H](CC(N)=O)NC(=O)[C@H](CCC(N)=O)NC(=O)[C@@H]4CSSC[C@H](NC(=O)[C@H](CO)NC(=O)[C@H](CCC(=O)O)NC(=O)CNC(=O)[C@H](CSSC[C@H](NC(=O)CNC(=O)[C@H]([C@H](C)NC)NC(=O)[C@H](C(C)C)NC(=O)[C@H](C)NC(=O)[C@H](CO)NC1=O)C(=O)N[C@@H](CCCCN)C(=O)N4)NC(=O)[C@@H]1CCCN1C(=O)[C@H]([C@@H](C)CC)NC(=O)[C@H](C)NC(=O)[C@H](CCCNC(=N)N)NC(=O)[C@H](Cc1ccc(O)cc1)NC3=O)C(=O)N[C@@H](C(C)C)C(=O)N[C@@H](Cc1ccc(O)cc1)C(=O)N[C@@H]([C@@H](C)CC)C(=O)N1CCC[C@H]1C(=O)N2` (cyclo(AIPCGESCVYIPCISAV[X1]GCKCQNKVCYR); disulfide 4-20, 8-22, 13-27) [listing 2 of 2 here], for which the HC50 at 1 h in series [2] is 20.1 µM.
